Measurements reported in patent publication EP3441077A1, “PHARMACEUTICAL PRODUCT FOR TREATING ANKYLOSING SPONDYLITIS AND COMBINED IMMUNE DEFECT, AND PREPARATION AND APPLICATION THEREOF” (Beijing Lu De Kai Qi Co., Ltd., priority 2016, dated 2017).
Where two headings read alike, the source gives them in different places. Marks after values point to notes of the source that are not given here.

How the values were obtained:
[1] = tested on: male mice; details: 40 mg/kg•bw, positive control
Experimental: Sperm abnormality assay in mice 50 sexually mature male mice weighing 30-35 g is randomly divided into 5 groups. […] The doses of the pharmaceutical product for treating ankylosing spondylitis for combined immunodeficiency according to the present invention is 1.25, 2.50, and 5.00 g/kg•bw, respectively, which were adjusted to the desired concentration with distilled water. The mice were administered via oral gavage once a day for 5 days, and the animals were sacrificed 30 days after the last gavage. The epididymis is sectioned and stained with eosin. Five animals were measured in each group and 1000 spermatozoa with intact structural were measured per animal, by which the incidence of sperm abnormality (in percentage) was calculated and statistical process is performed. […] Table 3 Statistical results of sperm abnormality assay in mice

[2] = tested on: mouse bone marrow polychromatic erythrocytes; details: 50 mg/kg•bw, positive control; for Number of micronucleus: 5000 cells examined; for Micronucleus rate (‰): P<0.01 vs negative control
Experimental: Test animals: The healthy Kunming mice provided by the Experimental Animal Center of the National Institute for the Control of Pharmaceutical and Biological Products are selected. • 3. Mouse bone marrow polychromatic erythrocyte micronucleus assay The assay was carried out via oral gavage and the administration was performed twice at intervals of 24 hr. 50 mice weighing 25-30 g are randomly divided into 5 groups according to body weight, 10 in each group, half male and half female. […] The doses of the pharmaceutical product for treating ankylosing spondylitis for combined immunodeficiency according to the present invention are 2.50, 5.00, and 10.00 g/kg•bw, respectively, which were adjusted to the desired concentration with distilled water. The animals were sacrificed by cervical dislocation six hours after the last administration of the pharmaceutical product for treating ankylosing spondylitis for combined immunodeficiency according to the present invention. The bone marrow of sternum was diluted with calf serum, smeared, fixed in methanol, and stained with Giemsa. Under the light microscope, 1000 polychromatic erythrocytes (PRC) were measured per animal, and the incidence of micronucleus was determined by the permillage of micronucleus-containing PRC and statistical process is performed.

[3] = tested on: patients with ankylosing spondylitis; test: Clinical trial in patients with ankylosing spondylitis; type: in vivo, human; details: for Cure / Effective / Improved / Ineffective / excellence / upturn: 100 patients per group
Experimental: Clinical trials were performed in patients with ankylosing spondylitis. The criteria for inclusion are as follows: • (1) The New York Standard for Ankylosing Spondylitis revised in 1984 is met. • (2) The diagnostic criteria for the "renal deficiency and cold syndrome" of Ankylosing Spondylitis in Traditional Chinese Medicine is met. It is obtained by reference to the "Guidelines for Clinical Research of New Pharmaceutical products for Treating Arthralgia" and combined with the clinical experience of Professor Jiao Shude and Professor Yan Xiaoping. […] The five criteria for IBP are: age of onset <40 years old; insidious onset; improvement after exercise; no improvement after rest; and nocturnal pain (improvement after getting up). If the patient meets 4 of them, he or she can be confirmed to have IBP (sensitivity 77.0%, specificity 91.7%). […] Treatment method: a randomized control method was used. There are 100 patients in the test group, 100 patients in the control group 1, and 100 patients in the control group 2. […] Control group 1: the patients were orally administrated with loxoprofen sodium from Sankyo Co. Ltd., Japan twice a day in the morning and evening, and 3 months is a course of treatment. Control group 2: the patients were orally administrated with the traditional Chinese medicine for treating ankylosing spondylitis prepared in the examples of CN102091137B twice a day in the morning and evening, and 3 months is a course of treatment. No other medications for ankylosing spondylitis is administered during the course of treatment. In particular, the traditional Chinese medicine for treating ankylosing spondylitis prepared in the examples of CN102091137B is prepared as following: weighing the raw materials that contain in the formula ,that is 10 g of rhizoma cibotii, 15 g of pilose antler, 10 g of dipsacus asper, 5 g of scorpio, 15 g of kudzu vine root, 12 g of chuanxiong rhizome, 5 g of caulis spatholobi, 15 g of white paeony root, 15 g of common peony root, 10g of safflower carthamus, 15 g of medicinal cyathula root and 10 g of white mustard seed, adding 1500 ml of water, decocting with slow fire to concentrate the medicine liquid to 250 ml, filtering dregs of a decoction and preparing a decoction. Table 8 Indicators for efficacy evaluation in this clinical trial [table] […] Table 9 Statistical results of clinical trial After taking three courses of treatment, all the patients in the three groups stopped taking medication, and whether the symptoms were aggravated or slowed down was observed one month, three months, and twelve months after pharmaceutical product withdrawal. If the symptoms after a period of drug withdrawal were more serious than the symptoms at the time of drug withdrawal, it was labeled as "-", otherwise labeled as "+". If there were two grades in the difference, it was labeled as […]. For example, if the therapeutic effect of patient A at the time of drug withdrawal was improved, and the therapeutic effect twelve months after drug withdrawal was Ineffective, it was labeled as "-2". Table 10 Statistical results of clinical trial after pharmaceutical product withdrawal

[4] = At the time of drug withdrawal (after three courses)
[5] = One course of treatment (3 months), oral twice a day, graded per Table 8
[6] = One month after drug withdrawal
[7] = Three courses of treatment, oral twice a day, graded per Table 8
[8] = Twelve months after drug withdrawal
[9] = three months after drug withdrawal

## O=P1(N(CCCl)CCCl)NCCCO1 (stereo not shown) [cp, cyclophosphamide]
[1]; 5000 sperms examined
  Number of abnormal sperms: 487
[1]; P<0.01 vs negative control
  Rate of sperm abnormality (%): 9.74* %
[2]; Female mice
  Number of micronucleus: 150
  Micronucleus rate (‰): 30.0* ‰
[2]; Male mice
  Number of micronucleus: 167
  Micronucleus rate (‰): 33.4* ‰

## CC(C(=O)O)c1ccc(CC2CCCC2=O)cc1 (stereo not shown) [loxoprofen sodium]
[3]; [4]
  Cure: 0 case
  Effective: 36 case
  Improved: 3 case
  Ineffective: 61 case
[3]; [5]
  Cure: 0 case
  Ineffective: 82 case
  excellence: 0 case
  upturn: 18 case
[3]; [6]
  Cure: 0 case
  Effective: 31 case
  Improved: 2 case
  Ineffective: 67 case
[3]; [7]
  Cure: 0 case
  Ineffective: 61 case
  excellence: 3 case
  upturn: 36 case
[3]; [8]
  Cure: 0 case
  Effective: 9 case
  Improved: 0 case
  Ineffective: 91 case
[3]; after three courses of treatment and then withdrawal
  course of the therapeutic effect after withdrawal (in words): had more disease relapse
[3]; [9]
  Cure: 0 case
  Effective: 20 case
  Improved: 0 case
  Ineffective: 80 case
